The subject of data set [1] is skin (forearm of panelists). Put plainly: Moisturizing effect on skin: skin conductance (SKICON200-EX) on forearm of panelists. Format: in vivo, human. As to conditions: Homo sapiens, topical, 20 min; 100 μl of 5% aqueous solution on washed forearm, ten panelists; conductance changing ratio before vs 20 minutes after application; read-out: Moisturizing effect on skin. As for the experimental part: Evaluation was carried out in a manner that forearm of panelists was washed and then applied with 100 μl of aqueous amino acid N-glyceryl derivative solution prepared in 5% concentration. Then, conductance value of the skin was measured by SKICON200-EX (manufactured by IBS K. K.) before the application and in 20 minutes elapsed after the application.
Moisturizing effect on skin was evaluated by the following criteria.
Moisturizing effect on skin rating criteria • ◯: Conductance changing ratio is 10% more • □: Conductance changing ratio is 3% or more and less than 10% • X: Conductance changing ratio is less than 3.

A short description of data set [2]: Moisture-absorption ability measurement employing keratin powder (ground wool). Format: physicochemical. As to conditions: keratin powder with sample, 20° C., 79.2% relative humidity, 48 hours; absorbed water per 1 g of keratin powder. The protocol:
[Method of Moisture-Absorption Ability Measurement Carried Out by Employing Keratin Powder (Ground Wool)]
Moisture-absorption ability was evaluated by the following criteria.
Moisture-absorption ability rating criteria • ⊚: Amount of absorbed water per 1 g of keratin powder is 0.60 g or more. • ◯: Amount of absorbed water per 1 g of keratin powder is 0.50 g or more and less than 0.60 g • Δ: Amount of absorbed water per 1 g of keratin powder is 0.40 g or more and less than 0.50 g • X: Amount of absorbed water per 1 g of keratin powder is less than 0.40 g [Method of Moisturizing Effect Measurement Carried Out by Employing Keratin Powder (Ground Wool)]

Data set [3] in a line: Moisturizing effect measurement employing keratin powder (ground wool). It is filed as physicochemical. As to conditions: (B/A)×100: water retained after further 6 hours at 20° C., 20.0% relative humidity, relative to water absorbed at 79.2% relative humidity for 48 hours. The protocol: For the constant-humidity bath under 20.0% of relative humidity, saturated aqueous potassium acetate solution was employed.
Moisturizing effect was evaluated by the following criteria,
Moisturizing effect rating criteria • ⊚: 60 or more • ◯: 50 or more and less than 60 • Δ: 40 or more and less than 50 • X: Less than 40

The nature of data set [4]: Stability evaluation: odor of sample solution after storage at 50° C. for 1 month. As to conditions: 5% by weight sample solution, sealed, 50° C., 1 month; odor, average of 5 panelists (3: no degradation odor, 1: strong degradation odor).
Text: [Method of Stability Evaluation]
After 1 month being elapsed, the sealing was opened, followed by odor of samples being evaluated by 5 panelists according to the following criteria.
Odor rating criteria • 3: No degradation odor • 2: Almost no degradation odor • 1: Strong degradation odor
Odor evaluation value of each sample was the average of values determined by 5 panelists; the evaluation result was represented by the following marks rated according to respective criteria. • ∘: 2.4 or more and less than 3 • □: 1.8 or more and less than 2.4 • X: Less than 1.8

As for `O=C(O)CNCC(O)CO` (stereo not shown) [Glyceryl derivative of glycine, N-glycerylglycine], the change in vivo at 5 % in data set [1] was over 10%. The Moisture-absorption ability entry in data set [2] was “⊚ (Amount of absorbed water per 1 g of keratin powder is 0.60 g or more)”. In data set [3], the Moisturizing effect entry is “⊚ (60 or more)”. Also, the Stability result in data set [4] was “Δ”.

These data come from patent US20060018864A1, “Cosmetic preparation containing glycerylamino acid derivative” (priority 2002, published 2006).
